Values quoted from earlier work as cited in paper PMC7395068, “The evolution of strategies to minimise the risk of human drug-induced liver injury (DILI) in drug discovery and development” (Archives of Toxicology, 2020).
Where two headings read alike, the source gives them in different places.

Tests used:
[1] = tested on: HepG2 cells; settings: cited from earlier work
[2] = tested on: HepG2 cells; settings: cited from earlier work; remark: listed apart in the source
[3] = tested on: human hepatocytes; settings: cited from earlier work
[4] = cited from earlier work
[5] = tested on: isolated mouse liver mitochondria; settings: cited from earlier work
[6] = cited from earlier work; remark: listed apart in the source
[7] = tested on: THLE or HepG2 cells, isolated mitochondria, BSEP; settings: cited from earlier work
[8] = In vitro Assay, ref O'Brien 2006
[9] = assignment in O'Brien 2006, ref O'Brien 2006

Nc1ccc(C(=O)O)c(O)c1 [aminosalycilate]
Structural based (HCI) [1]: +VE (key: +VE: lowest HCI endpoint IC50 (or in the absence of dose–response < 100 µM) < 30 × total human plasma exposure levels (Cmax.tot))

O=C(O)CCCC[C@@H]1SC[C@@H]2NC(=O)N[C@@H]21 [biotin]
Cluser analysis [2]: -VE | Structural based (HCI) [2]: -VE | Structural based (HCI) [3]: -VE | In vivo DILI ([4]; in vivo): -VE | in vitro data EC20<=2uM [5]: -VE

CC(C)(O/N=C(\C(=O)N[C@@H]1C(=O)N2C(C(=O)[O-])=C(C[n+]3ccccc3)CS[C@H]12)c1csc(N)n1)C(=O)O [ceftazidime]
DILI +VE (5-8), DILI -VE (-4) ([6]; ref Chen 2016): +VE | DILI severity category ([6]; ref Chen 2016): vLess-DILI-Concern | Structural based (HCI) [1, 8]: +VE (lowest HCI endpoint IC50 (or in the absence of dose–response < 100 µM) < 30 × total human plasma exposure levels (Cmax.tot)) | In vivo DILI ([4]; […]): +VE | In vivo DILI ([4]; ref O'Brien 2006): +VE

COCc1c(C(C)C)nc(C(C)C)c(/C=C/[C@@H](O)C[C@@H](O)CC(=O)O)c1-c1ccc(F)cc1 [cerivastatin]
Structural based (HCI) [1]: +VE (key: +VE: lowest HCI endpoint IC50 (or in the absence of dose–response < 100 µM) < 30 × total human plasma exposure levels (Cmax.tot)) | In vivo DILI ([4]; ref O'Brien 2006): +VE

Oc1c(I)cc(Cl)c2cccnc12 [clioquinol]
Structural based (HCI) [1, 8]: +VE (lowest HCI endpoint IC50 (or in the absence of dose–response < 100 µM) < 30 × total human plasma exposure levels (Cmax.tot)) | In vivo DILI ([4]; ref O'Brien 2006): -VE

CCOC(=O)[C@H](CCc1ccccc1)N[C@@H](C)C(=O)N1CCC[C@H]1C(=O)O [enalapril]
DILI +VE (5-8), DILI -VE (-4) ([6]; ref Chen 2016): +VE | DILI severity category ([6]; ref Chen 2016): vLess-DILI-Concern | Structural based (HCI) [1, 8]: +VE (lowest HCI endpoint IC50 (or in the absence of dose–response < 100 µM) < 30 × total human plasma exposure levels (Cmax.tot)) | In vivo DILI ([4]; ref O'Brien 2006): +VE

CC[C@]1(O)CC[C@H]2[C@@H]3CCC4=CCCC[C@@H]4[C@H]3CC[C@@]21C [ethylestrenol]
Structural based (HCI) [1, 8]: +VE (lowest HCI endpoint IC50 (or in the absence of dose–response < 100 µM) < 30 × total human plasma exposure levels (Cmax.tot)) | In vivo DILI ([4]; ref O'Brien 2006): +VE

CCNC(C)Cc1cccc(C(F)(F)F)c1 (centres unmarked) [fenfluramine]
Structural based (HCI) [1, 8]: -VE | In vivo DILI ([4]; ref O'Brien 2006): -VE

O=C(O)c1ccccc1Nc1cccc(C(F)(F)F)c1 [flufenamate]
Structural based (HCI) [1, 8]: +VE (lowest HCI endpoint IC50 (or in the absence of dose–response < 100 µM) < 30 × total human plasma exposure levels (Cmax.tot)) | In vivo DILI ([4]; ref O'Brien 2006): -VE

O=C(O)P(=O)(O)O [foscarnet]
DILI +VE (5-8), DILI -VE (-4) ([6]; ref Chen 2016): -VE | DILI severity category ([6]; ref Chen 2016): Ambiguous DILI-concern | Structural based (HCI) [1, 8]: +VE (lowest HCI endpoint IC50 (or in the absence of dose–response < 100 µM) < 30 × total human plasma exposure levels (Cmax.tot)) | In vivo DILI ([4]; ref O'Brien 2006): -VE

FC(F)(F)C(Cl)Br (centres unmarked) [halothane]
Structural based (HCI), In vitro Assay ([1]; HepG2 HCI, ref O'Brien 2006): +VE | In vivo DILI [4, 9]: -VE

NNc1nncc2ccccc12 [hydralazine]
DILI +VE (5-8), DILI -VE (-4) ([6]; ref Chen 2016): +VE | DILI severity category ([6]; ref Chen 2016): vLess-DILI-Concern | Structural based (HCI) [1, 8]: +VE (lowest HCI endpoint IC50 (or in the absence of dose–response < 100 µM) < 30 × total human plasma exposure levels (Cmax.tot)) | In vivo DILI ([4]; […]): +VE | In vivo DILI ([4]; ref O'Brien 2006): +VE

CC(C(=O)O)c1ccc(N2Cc3ccccc3C2=O)cc1 (centres unmarked) [indoprofen]
Structural based (HCI), In vitro Assay ([1]; HepG2 HCI, ref O'Brien 2006): +VE | In vivo DILI [4, 9]: -VE

NC[C@H]1O[C@H](O[C@H]2[C@H](O)[C@@H](O[C@H]3O[C@H](CO)[C@@H](O)[C@H](N)[C@H]3O)[C@H](N)C[C@@H]2N)[C@H](O)[C@@H](O)[C@@H]1O [kanamycin]
Structural based (HCI) [1]: +VE | Partition Hybrid HRM Score [7]: -VE | Ro2 Hybrid HRM Score [7]: -VE

CC12CC3CC(C)(C1)CC(N)(C3)C2 [memantine]
DILI +VE (5-8), DILI -VE (-4) ([6]; ref Chen 2016): +VE | DILI severity category ([6]; ref Chen 2016): vLess-DILI-Concern | Structural based (HCI) [1, 8]: -VE | Structural based (HCI) ([3]; In vitro Assay, ref Xu 2008): -VE | In vivo DILI ([4]; ref O'Brien 2006): -VE | In vivo DILI ([4]; ref Xu 2008): -VE

C=C1c2cccc(O)c2C(=O)C2=C(O)[C@]3(O)C(=O)C(C(N)=O)=C(O)[C@@H](N(C)C)[C@@H]3[C@@H](O)[C@H]12 [methacycline]
Structural based (HCI) [1, 8]: +VE (lowest HCI endpoint IC50 (or in the absence of dose–response < 100 µM) < 30 × total human plasma exposure levels (Cmax.tot)) | Structural based (HCI) ([3]; In vitro Assay, ref Xu 2008): +VE | In vivo DILI ([4]; ref O'Brien 2006): +VE | In vivo DILI ([4]; ref Xu 2008): +VE

CCN(CC)CCNC(=O)c1cc(Cl)c(N)cc1OC [metoclopramide]
DILI +VE (5-8), DILI -VE (-4) ([6]; in vivo): +VE | DILI severity category ([6]; in vivo): vLess-DILI-Concern | Structural based (HCI) [1]: -VE

CC[C@H](C)C(=O)O[C@H]1CCC=C2C=C[C@H](C)[C@H](CC[C@@H]3C[C@@H](O)CC(=O)O3)[C@H]21 [mevastatin]
Structural based (HCI), In vitro Assay ([1]; HepG2 HCI, ref O'Brien 2006): -VE | In vivo DILI [4, 9]: -VE

O=C(O)c1cccnc1 [niacin]
Structural based (HCI) [1, 8]: -VE | Partition Hybrid HRM Score ([7]; In vitro Assay, ref Aleo 2019): +VE | Ro2 Hybrid HRM Score ([7]; In vitro Assay, ref Aleo 2019): -VE

CN1CCC[C@H]1c1cccnc1 [nicotine]
Cluser analysis [2]: -VE | In vivo DILI ([4]; in vivo): -VE | in vitro data EC20<=2uM [5]: -VE

COC(=O)Nc1nc2ccc(C(=O)c3cccs3)cc2[nH]1 [nocodazole]
Structural based (HCI) [1, 8]: +VE (lowest HCI endpoint IC50 (or in the absence of dose–response < 100 µM) < 30 × total human plasma exposure levels (Cmax.tot)) | Structural based (HCI) ([3]; In vitro Assay, ref Xu 2008): -VE | In vivo DILI ([4]; ref O'Brien 2006): -VE | In vivo DILI ([4]; ref Xu 2008): -VE

CCn1cc(C(=O)O)c(=O)c2cc(F)c(N3CCNCC3)cc21 [norfloxacin]
DILI +VE (5-8), DILI -VE (-4) ([6]; ref Chen 2016): +VE | DILI severity category ([6]; ref Chen 2016): vLess-DILI-Concern | Structural based (HCI) [1, 8]: +VE (lowest HCI endpoint IC50 (or in the absence of dose–response < 100 µM) < 30 × total human plasma exposure levels (Cmax.tot)) | In vivo DILI ([4]; ref O'Brien 2006): +VE

CCC1(c2ccccc2)C(=O)NCNC1=O [primidone]
DILI +VE (5-8), DILI -VE (-4) ([6]; in vivo): -VE | Structural based (HCI) [1]: +VE

CCCc1cc(=O)[nH]c(=S)[nH]1 [propylthiouracil]
DILI +VE (5-8), DILI -VE (-4) ([6]; in vivo): +VE | DILI severity category ([6]; in vivo): vMost-DILI-Concern | Cluser analysis [2]: -VE | Structural based (HCI) [2]: -VE | in vitro data EC2<=1x Cmax ([5]; In vitro Assay, ref Porceddu 2012): +VE

CCCc1cc(=O)[nH]c(=S)[nH]1 [propythiouracil]
Structural based (HCI), In vitro Assay ([1]; HepG2 HCI, ref O'Brien 2006): +VE

[Cl-].[Na+] [sodium chloride]
Structural based (HCI), In vitro Assay [1]: +VE | In vivo DILI ([4]; in vivo): -VE

CN(N=O)C(=O)N[C@@H](C=O)[C@@H](O)[C@H](O)[C@H](O)CO [streptozocin]
DILI +VE (5-8), DILI -VE (-4) ([6]; ref Chen 2016): -VE | DILI severity category ([6]; ref Chen 2016): Ambiguous DILI-concern | Structural based (HCI) [1, 8]: -VE | In vivo DILI ([4]; ref O'Brien 2006): -VE

Nc1ccc(S(=O)(=O)NC(=O)c2ccccc2)cc1 [sulfabenzamide]
Structural based (HCI), In vitro Assay ([1]; HepG2 HCI, ref O'Brien 2006): -VE | In vivo DILI [4, 9]: -VE

Nc1ccc(S(=O)(=O)Nc2ccnn2-c2ccccc2)cc1 [sulfaphenazole]
Structural based (HCI) [1, 8]: +VE (lowest HCI endpoint IC50 (or in the absence of dose–response < 100 µM) < 30 × total human plasma exposure levels (Cmax.tot)) | In vivo DILI ([4]; […]): -VE | In vivo DILI ([4]; ref O'Brien 2006): +VE

Cc1scc2c1N(C(=O)CN1CCN(C)CC1)c1ccccc1NC2=O [telenzipine]
Structural based (HCI), In vitro Assay ([1]; HepG2 HCI, ref O'Brien 2006): -VE | In vivo DILI [4, 9]: -VE

Cc1ccc(S(=O)(=O)NC(=O)NN2CCCCCC2)cc1 [tolazamide]
DILI +VE (5-8), DILI -VE (-4) ([6]; ref Chen 2016): +VE | DILI severity category ([6]; ref Chen 2016): vLess-DILI-Concern | Structural based (HCI) [1, 8]: +VE (lowest HCI endpoint IC50 (or in the absence of dose–response < 100 µM) < 30 × total human plasma exposure levels (Cmax.tot)) | In vivo DILI ([4]; ref O'Brien 2006): +VE

CC[C@]12CCCN3CCc4c(n(c5ccccc45)[C@@](O)(C(=O)OC)C1)[C@@H]32 [vincamine]
Structural based (HCI), In vitro Assay ([1]; HepG2 HCI, ref O'Brien 2006): +VE | In vivo DILI [4, 9]: -VE

NS(=O)(=O)Cc1noc2ccccc12 [zonisamide]
DILI +VE (5-8), DILI -VE (-4) ([6]; ref Chen 2016): +VE | DILI severity category ([6]; ref Chen 2016): vLess-DILI-Concern | Structural based (HCI) [1, 8]: +VE (lowest HCI endpoint IC50 (or in the absence of dose–response < 100 µM) < 30 × total human plasma exposure levels (Cmax.tot)) | In vivo DILI ([4]; ref O'Brien 2006): -VE
